Reference: patent US11414415B2, “6H-imidazo[4,5,1-ij]quinolone, synthesis method and use thereof” (HANGZHOU NORMAL UNIVERSITY, priority 2020, dated 2022)

System: A549 (lung cancer cell)
Test: MTT tumor cell proliferation assay on A549 lung cancer cells
Type: cell-based
Conditions: for IC50: Homo sapiens, 48 h, 44 h culture + 4 h MTT, read at 570 nm, sample concentration 0.5 mg/mL (water as solvent)
Experimental: Biological activity assay was conducted on compounds I-d to I-f prepared in the above examples:
Original osimertinib was used as control.
Specific procedure was as follows: plating A549 cells in a 96-well plate at a cell density of 2×10^4 cells/mL; after placing in an incubator overnight at 37° C. in 5% CO2, adding samples to be screened (sample concentrations are given in Table 1; medication groups were given 10 μL of the drug at the corresponding concentration per well, and blank control group was given 10 μL of PBS per well); after culturing for 44 h, adding 10 μL of MTT per well to culture for additional 4 h; dissolving in DMSO, shaking, and detecting on a microplate reader at 570 nm.
Inhibitory concentration 50 (IC50) values of 6H-imidazo[4,5,1-ij]quinolone derivatives with structures as shown in formulas I-d to I-f and control drug original osimertinib against A549 (lung cancer cell) were detected.

IC50 [µM]	Structure (SMILES)	IC50 value compared with osimertinib (statement in words)
11.2	Cc1ccc(-c2nc3cccc4c(=O)ccn2c34)cc1 [I-a]	–
15.3	O=c1ccn2c(-c3ccc(F)cc3)nc3cccc1c32 [I-b]	–
16.2	O=c1ccn2c(-c3ccccc3Cl)nc3cccc1c32 [I-c]	–
9.9	O=c1ccn2c(-c3cccs3)nc3cccc1c32 [I-d]	equivalent to anti-lung cancer drug osimertinib
21.1	O=c1ccn2c(C3CC3)nc3cccc1c32 [I-e]	–
12.3	COc1cc2nc(-c3ccccc3)n3ccc(=O)c(c1)c23 [I-f]	–
9.74	C=CC(=O)Nc1cc(Nc2nccc(-c3cn(C)c4ccccc34)n2)c(OC)cc1N(C)CCN(C)C [Osimertinib, osimertinib, reference compound]	–
